Where two headings read alike, the source gives them in different places.

This test has as its target human RIP1 kinase domain (2-375) (Homo sapiens (Human), UniProt Q13546). The experiment in a line: biochemical. To be noted: read-out: RIP1 Ki. It counts as biochemical. An outline of the steps: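 50 nM purified kinase domain from baculovirus-infected insect cells, incubated 2 h with compound in 50 mM Hepes pH 7.5, 30 mM MgCl2, 1 mM DTT, 50 uM ATP, 0.002% Brij-35, 0.5% DMSO. ADP formation read by Transcreener FP at 633 nm excitation. Ki^app fitted with the Morrison tight-binding equation.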

The mark [1] stands for this setting: Table 1, apparent Ki (Morrison tight-binding fit), 50 nM RIP1 kinase domain, 50 uM ATP, 2 hours incubation.
[2] abbreviates: human RIP1 kinase domain (2-375), 50 uM ATP, 2 hours incubation, Transcreener ADP assay.

Chain of human RIP1 kinase domain (2-375) (Q13546 2-375): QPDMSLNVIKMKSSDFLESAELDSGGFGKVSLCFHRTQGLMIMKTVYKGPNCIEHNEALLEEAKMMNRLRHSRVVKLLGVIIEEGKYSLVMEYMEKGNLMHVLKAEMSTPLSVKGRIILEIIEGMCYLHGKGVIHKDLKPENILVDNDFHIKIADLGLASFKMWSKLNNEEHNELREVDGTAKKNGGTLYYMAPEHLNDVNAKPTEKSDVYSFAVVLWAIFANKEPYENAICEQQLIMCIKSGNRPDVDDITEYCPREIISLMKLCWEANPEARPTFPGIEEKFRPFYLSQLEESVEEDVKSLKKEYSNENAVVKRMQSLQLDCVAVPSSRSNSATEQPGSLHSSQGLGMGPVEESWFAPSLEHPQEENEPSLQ

In the case of `C[C@@H]1CCc2[nH]nc(C(=O)N[C@H]3COc4ccccc4N(C)C3=O)c2C1` [Example 60, (R)-5-methyl-N-((S)-5-methyl-4-oxo-2,3,4,5-tetrahydrobenzo[b][1,4]oxazepin-3-yl)-4,5,6,7-tetrahydro-1H-indazole-3-carboxamide], the Ki was 15.6 nM. For `CN1C(=O)[C@@H](NC(=O)c2n[nH]c3c2C[C@H](C(C)(C)C)CC3)COc2ccccc21` [Example 61, (R)-5-(tert-butyl)-N-((S)-5-methyl-4-oxo-2,3,4,5-tetrahydrobenzo[b][1,4]oxazepin-3-yl)-4,5,6,7-tetrahydro-1H-indazole-3-carboxamide], the Ki is 48 nM. Consider `CC1CCc2noc(C(=O)N[C@H]3COc4ccccc4NC3=O)c2C1` (stereo partly drawn) [Example 62, 5-methyl-N-((S)-4-oxo-2,3,4,5-tetrahydrobenzo[b][1,4]oxazepin-3-yl)-4,5,6,7-tetrahydrobenzo[c]isoxazole-3-carboxamide], for which the Ki under setting [1] stood at 254 nM. As to `CC1CCc2onc(C(=O)N[C@H]3COc4ccccc4NC3=O)c2C1` (stereo partly drawn) [Example 63, 5-methyl-N-((S)-4-oxo-2,3,4,5-tetrahydrobenzo[b][1,4]oxazepin-3-yl)-4,5,6,7-tetrahydrobenzo[d]isoxazole-3-carboxamide], under setting [1], the Ki is 740 nM. Same read-out and setting: in the case of `CN1C(=O)[C@@H](NC(=O)c2noc3c2CC(C(C)(C)C)CC3)COc2ccccc21` (stereo partly drawn) [Example 64, 5-(tert-butyl)-N-((S)-5-methyl-4-oxo-2,3,4,5-tetrahydrobenzo[b][1,4]oxazepin-3-yl)-4,5,6,7-tetrahydrobenzo[d]isoxazole-3-carboxamide] it was 73.5 nM; in that of `CC(C)(C)C1CCc2onc(C(=O)N[C@H]3COc4ccccc4NC3=O)c2C1` (stereo partly drawn) [Example 65, 5-(tert-butyl)-N-((S)-4-oxo-2,3,4,5-tetrahydrobenzo[b][1,4]oxazepin-3-yl)-4,5,6,7-tetrahydrobenzo[d]isoxazole-3-carboxamide], 404 nM; in that of `CC1CCc2noc(C(=O)N[C@H]3COc4ccccc4N(C)C3=O)c2C1` (stereo partly drawn) [Example 66, 5-methyl-N-((S)-5-methyl-4-oxo-2,3,4,5-tetrahydrobenzo[b][1,4]oxazepin-3-yl)-4,5,6,7-tetrahydrobenzo[c]isoxazole-3-carboxamide], 37.4 nM.

`CC1CCc2onc(C(=O)N[C@H]3COc4ccccc4N(C)C3=O)c2C1` (stereo partly drawn) [Example 67, 5-methyl-N-((S)-5-methyl-4-oxo-2,3,4,5-tetrahydrobenzo[b][1,4]oxazepin-3-yl)-4,5,6,7-tetrahydrobenzo[d]isoxazole-3-carboxamide]: the Ki under setting [1] is 107 nM. Consider `C[C@H]1CCc2onc(C(=O)N[C@H]3COc4ccccc4N(C)C3=O)c2C1` [Example 68, (S)-5-methyl-N-((S)-5-methyl-4-oxo-2,3,4,5-tetrahydrobenzo[b][1,4]oxazepin-3-yl)-4,5,6,7-tetrahydrobenzo[d]isoxazole-3-carboxamide], for which, under setting [1], the Ki was 53.8 nM. The same measure, in the same setting: then `C[C@H]1CCc2noc(C(=O)N[C@H]3COc4ccccc4N(C)C3=O)c2C1` [Example 69, (S)-5-methyl-N-((S)-5-methyl-4-oxo-2,3,4,5-tetrahydrobenzo[b][1,4]oxazepin-3-yl)-4,5,6,7-tetrahydrobenzo[c]isoxazole-3-carboxamide], with 84.5 nM; and `C[C@@H]1CCc2onc(C(=O)N[C@H]3COc4ccccc4N(C)C3=O)c2C1` [Example 70, (R)-5-methyl-N-((S)-5-methyl-4-oxo-2,3,4,5-tetrahydrobenzo[b][l,4]oxazepin-3-yl)-4,5,6,7-tetrahydrobenzo[d]isoxazole-3-carboxamide], with 219 nM. In the case of `C[C@@H]1CCc2noc(C(=O)N[C@H]3COc4ccccc4N(C)C3=O)c2C1` [Example 71, (R)-5-methyl-N-((S)-5-methyl-4-oxo-2,3,4,5-tetrahydrobenzo[b][1,4]oxazepin-3-yl)-4,5,6,7-tetrahydrobenzo[c]isoxazole-3-carboxamide], the Ki under setting [1] was determined as 19.2 nM. Regarding `Cc1cc2n(n1)CCC(NC(=O)c1ncn(Cc3ccccc3)n1)C(=O)N2C` (centres unmarked) [Example 72, 1-benzyl-N-(2,4-dimethyl-5-oxo-5,6,7,8-tetrahydro-4H-pyrazolo[1,5-a][1,3]diazepin-6-yl)-1H-1,2,4-triazole-3-carboxamide], the Ki under setting [1] was 68 nM.

Consider `CN1C(=O)[C@@H](NC(=O)c2ncn(Cc3ccccc3)n2)CCn2nccc21` [Example 73, (S)-1-benzyl-N-(4-methyl-5-oxo-5,6,7,8-tetrahydro-4H-pyrazolo[1,5-a][1,3]diazepin-6-yl)-1H-1,2,4-triazole-3-carboxamide], for which, under setting [1], the Ki stood at 27 nM. Regarding `CCC1CCc2n[nH]c(C(=O)N[C@H]3COc4ccccc4N(C)C3=O)c2C1` (stereo partly drawn) [Example 74, 5-ethyl-N-((S)-5-methyl-4-oxo-2,3,4,5-tetrahydrobenzo[b][1,4]oxazepin-3-yl)-4,5,6,7-tetrahydro-2H-indazole-3-carboxamide], the Ki under setting [1] came out at 13 nM. As for `CN1C(=O)[C@@H](NC(=O)c2ncn3ccc(C(F)(F)F)cc23)CCn2nccc21` [Example 75, (S)-N-(4-methyl-5-oxo-5,6,7,8-tetrahydro-4H-pyrazolo[1,5-a][1,3]diazepin-6-yl)-7-(trifluoromethyl)imidazo[1,5-a]pyridine-1-carboxamide], the Ki under setting [1] came out at 231 nM. With `Cc1cc2n(n1)CCC(NC(=O)c1ncn3ccc(C(F)(F)F)cc13)C(=O)N2C` (centres unmarked) [Example 76, N-(2,4-dimethyl-5-oxo-5,6,7,8-tetrahydro-4H-pyrazolo[1,5-a][1,3]diazepin-6-yl)-7-(trifluoromethyl)imidazo[1,5-a]pyridine-1-carboxamide], the Ki under setting [1] worked out at 536 nM. Regarding `Cc1cc2n(n1)CC[C@H](NC(=O)c1nnc(Cc3ccccc3)[nH]1)C(=O)N2C` [Example 77, (S)-5-benzyl-N-(2,4-dimethyl-5-oxo-5,6,7,8-tetrahydro-4H-pyrazolo[1,5-a][1,3]diazepin-6-yl)-4H-1,2,4-triazole-3-carboxamide], the Ki under setting [1] came to 58 nM. For the compound `CN1C(=O)[C@@H](NC(=O)c2n[nH]c3ccc(Cl)cc23)COc2ccccc21` [Example 78, (S)-5-chloro-N-(5-methyl-4-oxo-2,3,4,5-tetrahydrobenzo[b][1,4]oxazepin-3-yl)-1H-indazole-3-carboxamide], under setting [1], the Ki was determined as 21 nM. In the case of `CN1C(=O)[C@@H](NC(=O)c2nnc(Cc3ccccc3)[nH]2)CCn2nc(C3CC3)cc21` [Example 79, (S)-5-benzyl-N-(2-cyclopropyl-4-methyl-5-oxo-5,6,7,8-tetrahydro-4H-pyrazolo[1,5-a][1,3]diazepin-6-yl)-4H-1,2,4-triazole-3-carboxamide], under setting [1], the Ki worked out at 34 nM. In the case of `CN1C(=O)[C@@H](NC(=O)c2nnc(Cc3ccccc3)[nH]2)CCn2nc(C(F)(F)F)cc21` [Example 80, (S)-5-benzyl-N-(4-methyl-5-oxo-2-(trifluoromethyl)-5,6,7,8-tetrahydro-4H-pyrazolo[1,5-a][1,3]diazepin-6-yl)-4H-1,2,4-triazole-3-carboxamide], the Ki under setting [1] stood at 64 nM.

In the case of `CN1C(=O)[C@@H](NC(=O)c2nnc3ccc(C(F)(F)F)nn23)COc2ccccc21` [Example 81, (S)-N-(5-methyl-4-oxo-2,3,4,5-tetrahydrobenzo[b][1,4]oxazepin-3-yl)-6-(trifluoromethyl)-[1,2,4]triazolo[4,3-b]pyridazine-3-carboxamide], the Ki under setting [1] was 567 nM. For the compound `CN1C(=O)[C@@H](NC(=O)c2nnc3ccc(C(F)(F)F)cn23)COc2ccccc21` [Example 82, (S)-N-(5-methyl-4-oxo-2,3,4,5-tetrahydrobenzo[b][1,4]oxazepin-3-yl)-6-(trifluoromethyl)-[1,2,4]triazolo[4,3-a]pyridine-3-carboxamide], under setting [1], the Ki is 393 nM. As to `CN1C(=O)[C@@H](NC(=O)c2n[nH]c3ccc(C#N)cc23)COc2ccccc21` [Example 83, (S)-5-cyano-N-(5-methyl-4-oxo-2,3,4,5-tetrahydrobenzo[b][1,4]oxazepin-3-yl)-1H-indazole-3-carboxamide], the Ki under setting [2] is 167 nM.

`CN1C(=O)[C@@H](NC(=O)c2nnc3ccc(C4CC4)cn23)COc2ccccc21` [Example 84, (S)-6-cyclopropyl-N-(5-methyl-4-oxo-2,3,4,5-tetrahydrobenzo[b][1,4]oxazepin-3-yl)-[1,2,4]triazolo[4,3-a]pyridine-3-carboxamide]: the Ki under setting [2] is 1400 nM. On to `CN1C(=O)C(NC(=O)c2ncn(Cc3ccccc3)n2)CCn2nc(C(F)(F)F)cc21` (centres unmarked) [Example 85, 1-benzyl-N-(4-methyl-5-oxo-2-(trifluoromethyl)-5,6,7,8-tetrahydro-4H-pyrazolo[1,5-a][1,3]diazepin-6-yl)-1H-1,2,4-triazole-3-carboxamide], for which the Ki under setting [2] was 76.8 nM. `Cc1cc(F)c2c(c1)OC[C@H](NC(=O)c1n[nH]c3c1C[C@@H](C(F)(F)F)CC3)C(=O)N2` [Example 88, (S)—N—((S)-6-fluoro-8-methyl-4-oxo-2,3,4,5-tetrahydrobenzo[b][1,4]oxazepin-3-yl)-5-(trifluoromethyl)-4,5,6,7-tetrahydro-1H-indazole-3-carboxamide]: under setting [2], the Ki came out at 16.7 nM. Take `Cc1cc(F)c2c(c1)OC[C@H](NC(=O)c1n[nH]c3c1C[C@H](C(F)(F)F)CC3)C(=O)N2` [Example 89, (R)—N—((S)-6-fluoro-8-methyl-4-oxo-2,3,4,5-tetrahydrobenzo[b][1,4]oxazepin-3-yl)-5-(trifluoromethyl)-4,5,6,7-tetrahydro-1H-indazole-3-carboxamide]: under setting [2], the Ki is 55.4 nM. With `Cc1ccc2snc(C(=O)N[C@H]3COc4ccccc4N(C)C3=O)c2c1` [Example 90, (S)-5-methyl-N-(5-methyl-4-oxo-2,3,4,5-tetrahydrobenzo[b][1,4]oxazepin-3-yl)benzo[d]isothiazole-3-carboxamide], under setting [2], the Ki came out at 18.6 nM.
